Assay results published in ChEMBL document CHEMBL5244273, “Tuberculosis: An Overview of the Immunogenic Response, Disease Progression, and Medicinal Chemistry Efforts in the Last Decade toward the Development of Potential Drugs for Extensively Drug-Resistant Tuberculosis Strains” (J Med Chem, 2021).
In brackets after ≈: the same amount, converted by molar mass.

Columns and labels:
[1] = system: Mycobacterium tuberculosis; experiment: Antitubercular activity against Mycobacterium tuberculosis H37Rv assessed as inhibition of bacterial growth by alamar blue assay; type: functional
[2] = system: Mycobacterium tuberculosis; experiment: Antimycobacterial activity against Mycobacterium tuberculosis H37Rv infected in human THP-1 cells assessed as inhibition of bacterial growth; type: functional, organism-based
[3] = system: Mycobacterium tuberculosis; experiment: Potentiation of ethionamide induced antibacterial activity against Mycobacterium tuberculosis H37Rv expressing GFP incubated for 5 days by fluorescence based analysis; type: functional, organism-based; details: 120 h
[4] = system: Mycobacterium tuberculosis; experiment: Antimycobacterial activity against Mycobacterium tuberculosis H37Rv assessed as inhibition of bacterial growth incubated for 5 days by alamar blue assay; type: functional; details: 120 h, time 5 day

| Structure (SMILES) | MIC [1] | IC50 [2] | EC50 [3] | MIC [4] |
| --- | --- | --- | --- | --- |
| O=C(NNC(=O)c1ccc([N+](=O)[O-])cc1)c1ccncc1 | 25 µg/mL (≈ 87.3 µM) | – | – | – |
| Cc1ccccc1C(=O)NNC(=O)c1ccncc1 | 25 µg/mL (≈ 97.9 µM) | – | – | – |
| O=C(NNS(=O)(=O)c1ccccc1)c1ccncc1 | 50 µg/mL (≈ 180 µM) | – | – | – |
| Cc1ccc(S(=O)(=O)NNC(=O)c2ccncc2)cc1 | 25 µg/mL (≈ 85.8 µM) | – | – | – |
| O=C(Cc1ccccc1F)NNC(=O)c1ccncc1 | 6.25 µg/mL (≈ 22.9 µM) | – | – | – |
| O=C(NNC(=O)c1ccc(Cl)c(Cl)c1)c1ccncc1 | 12.5 µg/mL (≈ 40.3 µM) | – | – | – |
| O=C(NNC(=O)c1ccc(Cl)cc1)c1ccncc1 | 25 µg/mL (≈ 90.7 µM) | – | – | – |
| O=C(NNC(=O)c1ccncc1)c1ccncc1 | 12.5 µg/mL (≈ 51.6 µM) | – | – | – |
| CCCCCCCCCCCCCCCCCC(=O)NNC(=O)c1ccncc1 | 50 µg/mL (≈ 124 µM) | – | – | – |
| COc1ccc(/C=C/C(=O)NNC(=O)c2ccncc2)cc1 | 12.5 µg/mL (≈ 42 µM) | – | – | – |
| O=C(/C=C/c1ccccc1)NNC(=O)c1ccncc1 | 50 µg/mL (≈ 187 µM) | – | – | – |
| O=C(CCC(F)(F)F)N1CCC(F)(c2ccnc(Cl)c2)CC1 | – | 0.01 µM | < 0.15 µM | – |
| COc1ccc(NC(=O)c2c(Nc3cccc(C)c3C)nn3c(O)cc(C)nc23)cc1 | – | – | – | 50 µg/mL (≈ 120 µM) |
| CCOc1ccc(NC(=O)c2c(Nc3ccccc3)nn3c(O)cc(C)nc23)cc1 | – | – | – | 50 µg/mL (≈ 124 µM) |
| Cc1cc(O)n2nc(Nc3ccc(F)cc3)c(C(=O)Nc3cccc(Cl)c3)c2n1 | – | – | – | 12.5 µg/mL (≈ 30.4 µM) |
| Cc1ccc(NC(=O)c2c(Nc3ccccc3)nn3c(O)cc(C)nc23)cc1 | – | – | – | 50 µg/mL (≈ 134 µM) |
| Cc1cc(O)n2nc(Nc3cccc(C)c3C)c(C(=O)Nc3cccc(Cl)c3)c2n1 | – | – | – | 50 µg/mL (≈ 119 µM) |
| Cc1ccc(Nc2nn3c(O)cc(C)nc3c2C(=O)Nc2ccc(F)cc2)c(C)c1 | – | – | – | 50 µg/mL (≈ 123 µM) |
| O=C(CCC(F)(F)F)N1CC(C2CCCCC2)C1 | – | 0.01 µM | < 0.01 µM | – |
| O=C(CCC(F)(F)F)N1CCC(F)(c2ccnc(F)c2)CC1 | – | 0.01 µM | < 0.15 µM | – |
| CCN1CCN(c2nn3c(O)cc(C)nc3c2C(=O)Nc2cccc(Cl)c2Cl)CC1 | – | – | – | 50 µg/mL (≈ 111 µM) |
| O=C(CCC(F)(F)F)N1CCC(F)(c2cncc(Cl)c2)CC1 | – | 0.01 µM | < 0.15 µM | – |

| Structure (SMILES) | MIC [1] | IC50 [2] | EC50 [3] | MIC [4] |
| --- | --- | --- | --- | --- |
| C=CC(=O)NNC(=O)c1ccncc1 | 50 µg/mL (≈ 262 µM) | – | – | – |
| O=C(CCC(F)(F)F)N1CCC2(CC1)CC(Br)=NO2 | – | 0.05 µM | < 0.038 µM | – |
| O=C(CCC(F)(F)F)N1CC(c2cccc(Cl)c2)C1 | – | 0.01 µM | < 0.01 µM | – |
| O=C(CCC(F)(F)F)N1CCC(F)(c2cncc(C(F)(F)F)c2)CC1 | – | 0.01 µM | < 0.15 µM | – |
| Cc1cccc(C(=O)NNC(=O)c2ccncc2)c1 | 12.5 µg/mL (≈ 49 µM) | – | – | – |
| O=C(NNC(=O)c1ccco1)c1ccncc1 | 12.5 µg/mL (≈ 54.1 µM) | – | – | – |
| O=C(/C=C/c1ccc(Cl)cc1)NNC(=O)c1ccncc1 | 12.5 µg/mL (≈ 41.4 µM) | – | – | – |
| O=C(CCC(F)(F)F)N1CCC(F)(c2cc(C(F)(F)F)ccn2)CC1 | – | 0.01 µM | < 0.15 µM | – |
| COC1=NOC2(CCN(C(=O)CCCl)CC2)C1 | – | 0.05 µM | < 0.038 µM | – |
| COc1ccc(C(=O)NNC(=O)c2ccncc2)cc1OC | 50 µg/mL (≈ 166 µM) | – | – | – |
| O=C(CCCl)N1CCC2(CC1)CC(C(F)(F)F)=NO2 | – | 0.05 µM | < 0.038 µM | – |
| CCC1=NOC2(CCN(C(=O)CCC(F)(F)F)CC2)C1 | – | 0.05 µM | < 0.038 µM | – |
| O=C(CCC(F)(F)F)N1CCC(c2ccnc(Cl)c2)CC1 | – | 0.01 µM | < 0.15 µM | – |
| CCOC1=NOC2(CCN(C(=O)CCC(F)(F)F)CC2)C1 | – | 0.05 µM | < 0.038 µM | – |
| O=C(CCC(F)(F)F)N1CCC(c2cnc(F)c(F)c2)CC1 | – | 0.01 µM | < 0.15 µM | – |
| CCCCCCOC1=NOC2(CCN(C(=O)CCC(F)(F)F)CC2)C1 | – | 0.05 µM | < 0.038 µM | – |
| O=C(CCC(F)(F)F)N1CCC(c2ncc(F)cc2F)CC1 | – | 0.01 µM | < 0.15 µM | – |
| COc1ccc(Nc2nn3c(O)cc(C)nc3c2C(=O)Nc2ccc(F)c(Cl)c2)cc1 | – | – | – | 25 µg/mL (≈ 56.6 µM) |
| O=C(Cc1cccc(Br)c1)NNC(=O)c1ccncc1 | 25 µg/mL (≈ 74.8 µM) | – | – | – |
| O=C(CCCC(F)(F)F)N1CCC(c2cncc(Cl)c2)CC1 | – | 0.01 µM | < 0.15 µM | – |
| O=C(CCC(F)(F)F)N1CCC(c2cncc(Cl)c2)C1 (stereo not given) | – | 0.01 µM | < 0.15 µM | – |
| O=C(CCC(F)(F)F)N1CCC(F)(c2cccnc2)CC1 | – | 0.01 µM | < 0.15 µM | – |

| Structure (SMILES) | MIC [1] | IC50 [2] | EC50 [3] | MIC [4] |
| --- | --- | --- | --- | --- |
| Cc1cc(O)n2nc(N3CCCC3)c(C(=O)Nc3ccc(Cl)c(Cl)c3)c2n1 | – | – | – | 25 µg/mL (≈ 61.5 µM) |
| O=C(CCC(F)(F)F)N1CCC(F)(c2ccnc(C(F)(F)F)c2)CC1 | – | 0.01 µM | < 0.15 µM | – |
| Cc1ccc(Nc2nn3c(O)cc(C)nc3c2C(=O)Nc2ccccc2)cc1 | – | – | – | 100 µg/mL (≈ 268 µM) |
| Cc1cc(O)n2nc(Nc3ccc(Cl)c(Cl)c3)c(C(=O)Nc3cccc(C)c3C)c2n1 | – | – | – | 50 µg/mL (≈ 110 µM) |
| O=C(CCC(F)(F)F)N1CCC2(CC1)CC(F)=NO2 | – | 0.05 µM | < 0.038 µM | – |
| O=C(CCC(F)(F)F)N1CCC(c2cccc(C(F)(F)F)n2)CC1 | – | 0.01 µM | < 0.15 µM | – |
| O=C(CCC(F)(F)F)N1CCC(c2cncc(C(F)(F)F)n2)CC1 | – | 0.01 µM | < 0.15 µM | – |
| O=C(CCC(F)(F)F)N1CCC(c2cncc(F)c2)CC1 | – | 0.01 µM | < 0.15 µM | – |
| O=C(CCC(F)(F)F)N1CCC(c2cncc(C(F)(F)F)c2)CC1 | – | 0.01 µM | < 0.15 µM | – |
| O=C(CCC(F)(F)F)N1CCC(F)(c2ccc(F)nc2)CC1 | – | 0.01 µM | < 0.15 µM | – |
| O=C(CCC(F)(F)F)N1CCC(c2ccncc2F)CC1 | – | 0.01 µM | < 0.15 µM | – |
| O=C(CCC(F)(F)F)N1CCC(c2ccc(F)nc2F)CC1 | – | 0.01 µM | < 0.15 µM | – |
| O=C(/C=C/c1ccco1)NNC(=O)c1ccncc1 | 12.5 µg/mL (≈ 48.6 µM) | – | – | – |
| COc1ccc(NC(=O)c2c(Nc3ccccc3)nn3c(O)cc(C)nc23)cc1 | – | – | – | 50 µg/mL (≈ 128 µM) |
| O=C(CCC(F)(F)F)N1CCC(c2ccc(F)cn2)CC1 | – | 0.01 µM | < 0.15 µM | – |
| Cc1ccc(Nc2nn3c(O)cc(C)nc3c2C(=O)Nc2ccc(F)c(Cl)c2)cc1 | – | – | – | 12.5 µg/mL (≈ 29.4 µM) |
| O=C(Cc1ccccc1Br)NNC(=O)c1ccncc1 | 25 µg/mL (≈ 74.8 µM) | – | – | – |
| COc1ccc(C2CCN(C(=O)CCC(F)(F)F)CC2)cn1 | – | 0.01 µM | < 0.15 µM | – |
| Cc1ccc(Nc2nn3c(O)cc(C)nc3c2C(=O)Nc2ccc(Cl)cc2)c(C)c1 | – | – | – | 50 µg/mL (≈ 119 µM) |
| O=C(CCC(F)(F)F)N1CCC(c2cc(C(F)(F)F)ccn2)CC1 | – | 0.01 µM | < 0.15 µM | – |
| O=C(CCC(F)(F)F)N1CCC(c2ccnc(C(F)(F)F)c2)CC1 | – | 0.01 µM | < 0.15 µM | – |
| O=C(CCC(F)(F)F)N1CCC(c2cccc(Cl)n2)CC1 | – | 0.01 µM | < 0.15 µM | – |

| Structure (SMILES) | MIC [1] | IC50 [2] | EC50 [3] | MIC [4] |
| --- | --- | --- | --- | --- |
| O=C(CCC(F)(F)F)N1CC(c2ccc(F)cc2F)C1 | – | 0.01 µM | < 0.01 µM | – |
| Cc1cc(O)n2nc(Nc3ccc(Cl)cc3)c(C(=O)Nc3ccccc3)c2n1 | – | – | – | 50 µg/mL (≈ 127 µM) |
| COc1ccc(Nc2nn3c(O)cc(C)nc3c2C(=O)Nc2ccc(C)cc2C)cc1 | – | – | – | 50 µg/mL (≈ 120 µM) |
| CC1=NOC2(CCN(C(=O)CCC(F)(F)F)CC2)C1 | – | 0.05 µM | < 0.038 µM | – |
| COc1ccc(NC(=O)c2c(NN3CCOCC3)nn3c(O)cc(C)nc23)cc1 | – | – | – | 25 µg/mL (≈ 62.7 µM) |
| COc1ccc(NC(=O)c2c(Nc3ccc(OC)cc3)nn3c(O)cc(C)nc23)cc1 | – | – | – | 12.5 µg/mL (≈ 29.8 µM) |
| O=C(CCC(F)(F)F)N1CCC(c2ccnc(F)c2)CC1 | – | 0.01 µM | < 0.15 µM | – |
| O=C(CCC(F)(F)F)N1CC(c2cc(F)c(F)c(F)c2)C1 | – | 0.01 µM | < 0.01 µM | – |
| COc1ccc(NC(=O)c2c(Nc3cccc(Cl)c3)nn3c(O)cc(C)nc23)cc1 | – | – | – | 12.5 µg/mL (≈ 29.5 µM) |
| CCOc1ccc(NC(=O)c2c(Nc3ccc(C)cc3C)nn3c(O)cc(C)nc23)cc1 | – | – | – | 50 µg/mL (≈ 116 µM) |
| O=C(CCC(F)(F)F)N1CCC(c2cncc(Cl)n2)CC1 | – | 0.01 µM | < 0.15 µM | – |
| Cc1cc(O)n2nc(Nc3ccccc3)c(C(=O)Nc3ccccc3)c2n1 | – | – | – | 50 µg/mL (≈ 139 µM) |
| O=C(Cc1ccccc1Cl)NNC(=O)c1ccncc1 | 25 µg/mL (≈ 86.3 µM) | – | – | – |
| Cc1cc(O)n2nc(Nc3ccc(Cl)cc3)c(C(N)=O)c2n1 | – | – | – | 50 µg/mL (≈ 157 µM) |
| O=C(CCC(F)(F)F)N1CCC(F)(c2ccccn2)CC1 | – | 0.01 µM | < 0.15 µM | – |
| Cc1cc(C2CCN(C(=O)CCC(F)(F)F)CC2)ccn1 | – | 0.01 µM | < 0.15 µM | – |
| O=C(CCC(F)(F)F)N1CCC(c2ccc(F)nc2)CC1 | – | 0.01 µM | < 0.15 µM | – |
| O=C(CCC(F)(F)F)N1CCC(c2cccc(F)n2)CC1 | – | 0.01 µM | < 0.15 µM | – |
| N#CC1=NOC2(CCN(C(=O)CCC(F)(F)F)CC2)C1 | – | 0.05 µM | < 0.038 µM | – |
| O=C(CCC(F)(F)F)N1CCC(c2cncc(Cl)c2)CC1 | – | 0.01 µM | < 0.15 µM | – |
